From patent publication US11718618B2, “Substituted pyrido[2,1-a]isoquinolines as VMAT2 inhibitors” (priority 2021, dated 2023)
Read-outs that look alike come from different tables or passages of the source.

Legend:
human VMAT2 = human VMAT2 (Homo sapiens (Human), UniProt Q05940); test: VMAT2 radioligand binding, 3H-dihydrotetrabenazine competition on human platelet homogenate
Procedure, shortened: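 Ki from scintillation counting of filter-bound ³H-dihydrotetrabenazine (10 nM) after 90 min, 25 °C incubation with twelve concentrations of compound. Membranes: human platelet homogenate, 30 μg protein per well; buffer DPBS, 1 mM EDTA, pH 7.4.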

[1] = Stability of compounds in human liver microsomes; type: in vitro ADME; conditions: for CLint scaled at 0.5 μM / half-life at 0.5 μM: both sexes, pH 7.4; for CLint scaled at 0.5 μM: liver microsomes, calculated from HLM half-life, read-out: HLM Scaled Intrinsic Clearance; for CLint scaled at 0.5 μM / Predicted Max. Bioavailability (% F) / HLM Predicted Systemic Clearance: human; for half-life at 0.5 μM: 0.5 μM compound, 0.5 mg/mL human liver microsomes, 37° C., maxed at 420 minutes, read-out: HLM Elimination half-life (t1/2, min); for Predicted Max. Bioavailability (% F): predicted from HLM data; for HLM Predicted Systemic Clearance: scaled from HLM half-life (Obach method)
Procedure: A test compound (0.5 μM) was incubated with pooled mixed gender liver microsomes from humans (0.5 mg/mL total protein) at 37° C. in the presence of an NADPH-generating system containing 50 mM, pH 7.4 potassium phosphate buffer, 3 mM magnesium chloride, 1 mM EDTA, 1 mM NADP, 5 mM glusose-6-phosphate, and 1 Unit/mL glucose-6-phosphate dehydrogenase. All concentrations were relative to the final incubation volume of 125 μL. Incubations were conducted at 37° C. for 0, 5, 10, 20, 40, and 60 minutes in a water bath and terminated by rapid mixing with 150 μL of ice-cold acetonitrile containing internal standard. Precipitated proteins were removed by centrifugation prior to LC-MS/MS analysis. Aliquots of the resulting supernatant fractions were analyzed by LC-MS/MS monitoring for depletion of parent compound. The resultant peak area ratio versus time data was fitted to a non-linear regression using XLfit Scientific Curve Fitting Software (IDBS Ltd., Surrey, UK) and the elimination half-life (t1/2, min) was calculated from the slope. […] Additional values calculated included predicted extraction ratio and predicted maximum bioavailability.

[2] = 10 nM 3H-dihydrotetrabenazine, human platelet homogenate, 25° C., 90 minutes, read-out: VMAT2 Ki

human VMAT2, sequence (Q05940 whole entry): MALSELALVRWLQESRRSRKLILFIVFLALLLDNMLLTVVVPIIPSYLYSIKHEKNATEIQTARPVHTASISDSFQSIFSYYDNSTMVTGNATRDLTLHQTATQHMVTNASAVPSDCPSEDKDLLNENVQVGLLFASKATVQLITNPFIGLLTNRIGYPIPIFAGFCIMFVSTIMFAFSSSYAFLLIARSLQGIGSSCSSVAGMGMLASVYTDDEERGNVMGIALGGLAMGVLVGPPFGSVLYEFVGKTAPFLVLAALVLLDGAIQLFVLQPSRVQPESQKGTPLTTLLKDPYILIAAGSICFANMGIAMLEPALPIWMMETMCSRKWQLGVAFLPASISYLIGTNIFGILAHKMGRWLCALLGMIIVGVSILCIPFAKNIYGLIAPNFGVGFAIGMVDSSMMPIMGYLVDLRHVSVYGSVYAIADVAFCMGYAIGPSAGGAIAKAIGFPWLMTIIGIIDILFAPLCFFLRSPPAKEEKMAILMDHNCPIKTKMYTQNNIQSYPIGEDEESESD

| Compound | Ki (human VMAT2) | CLint scaled at 0.5 μM [1] | half-life at 0.5 μM [1] | Predicted Max. Bioavailability (% F) [1] | HLM Predicted Systemic Clearance [1] | Ki (human VMAT2; [2]) |
| --- | --- | --- | --- | --- | --- | --- |
| CC[C@@H](O)COc1cc2c(cc1OC)[C@H]1C[C@@H](O)[C@H](CC(C)(C)C)CN1CC2 [Compound 4-58, (2R,3R,11bR)-3-(2,2-dimethylpropyl)-9-[(2R)-2-hydroxybutoxy]-10-methoxy-1H,2H,3H,4H,6H,7H,11bH-pyrido[2,1-a]isoquinolin-2-ol] | 1.1 nM | 5.99 mL/min/kg | 208 min | 77 % F | 4.61 mL/min/kg | – |
| COc1cc2c(cc1OCc1ncc(C)o1)CCN1C[C@@H](CC(C)(C)C)[C@H](O)C[C@H]21 [Compound 4-36, (2R,3R,11bR)-3-(2,2-dimethylpropyl)-10-methoxy-9-[(5-methyl-1,3-oxazol-2-yl)methoxy]-1H,2H,3H,4H,6H,7H,11bH-pyrido[2,1-a]isoquinolin-2-ol] | – | 13.4 mL/min/kg | 93 min | 60 % F | 8.02 mL/min/kg | 51 nM |
| COc1cc2c(cc1OCC(C)(C)O)CCN1C[C@@H](CC(C)(C)C)[C@H](O)C[C@H]21 [Compound 4-47, (2R,3R,11bR)-3-(2,2-dimethylpropyl)-9-(2-hydroxy-2-methylpropoxy)-10-methoxy-1H,2H,3H,4H,6H,7H,11bH-pyrido[2,1-a]isoquinolin-2-ol] | – | ≤ 2.97 mL/min/kg | ≥ 420 min | ≥87 % F | ≤2.59 mL/min/kg | 15 nM |
| CCOc1cc2c(cc1OC)[C@H]1C[C@@H](O)[C@H](CC(C)(C)C)CN1CC2 [Compound 4-17, (2R,3R,11bR)-3-(2,2-dimethylpropyl)-9-ethoxy-10-methoxy-1H,2H,3H,4H,6H,7H,11bH-pyrido[2,1-a]isoquinolin-2-ol] | – | 32.9 mL/min/kg | 38 min | 38 % F | 12.44 mL/min/kg | 1.1 nM |
| COc1cc2c(cc1OCc1cccc(C#N)n1)CCN1C[C@@H](CC(C)(C)C)[C@H](O)C[C@H]21 [Compound 4-77, 6-({[(2R,3R,11bR)-3-(2,2-dimethylpropyl)-2-hydroxy-10-methoxy-1H,2H,3H,4H,6H,7H,11bH-pyrido[2,1-a]isoquinolin-9-yl]oxy}methyl)pyridine-2-carbonitrile] | – | 8.01 mL/min/kg | 156 min | 71 % F | 5.72 mL/min/kg | 85 nM |
| COc1cc2c(cc1OCc1cccc(C#N)c1)CCN1C[C@@H](CC(C)(C)C)[C@H](O)C[C@H]21 [Compound 4-116, 3-({[(2R,3R,11bR)-3-(2,2-dimethylpropyl)-2-hydroxy-10-methoxy-1H,2H,3H,4H,6H,7H,11bH-pyrido[2,1-a]isoquinolin-9-yl]oxy}methyl)benzonitrile] | – | 21.8 mL/min/kg | 57 min | 48 % F | 10.44 mL/min/kg | 56 nM |
| [2H]C([2H])([2H])C([2H])([2H])Oc1cc2c(cc1OC)[C@H]1C[C@@H](O)[C@H](CC(C)(C)C)CN1CC2 [Compound 4-40, (2R,3R,11bR)-3-(2,2-dimethylpropyl)-9-(ethoxy-d5)-10-methoxy-1H,2H,3H,4H,6H,7H,11bH-pyrido[2,1-a]isoquinolin-2-ol] | 1.4 nM | 23.9 mL/min/kg | 52 min | 46 % F | 10.88 mL/min/kg | – |
| COc1cc2c(cc1OCC(C)(F)F)CCN1C[C@@H](CC(C)(C)C)[C@@H](O)C[C@H]21 [Compound 4-11, (2S,3R,11bR)-9-(2,2-difluoropropoxy)-3-(2,2-dimethylpropyl)-10-methoxy-1H,2H,3H,4H,6H,7H,11bH-pyrido[2,1-a]isoquinolin-2-ol] | – | ≤ 2.97 mL/min/kg | ≥ 420 min | ≥87 % F | ≤2.59 mL/min/kg | 14 nM |
| COc1cc2c(cc1OCC(F)F)CCN1C[C@@H](CC(C)(C)C)[C@H](O)C[C@H]21 [Compound 4-13, (2R,3R,11bR)-9-(2,2-difluoroethoxy)-3-(2,2-dimethylpropyl)-10-methoxy-1H,2H,3H,4H,6H,7H,11bH-pyrido[2,1-a]isoquinolin-2-ol] | – | ≤ 2.97 mL/min/kg | ≥ 420 min | ≥87 % F | ≤2.59 mL/min/kg | 2.2 nM |
| COc1cc2c(cc1OCC1CC(O)(C(F)(F)F)C1)CCN1C[C@@H](CC(C)(C)C)[C@H](O)C[C@H]21 (stereo partly drawn) [Compound 4-78, (2R,3R,11bR)-3-(2,2-dimethylpropyl)-9-{[3-hydroxy-3-(trifluoro-methyl)cyclobutyl]methoxy}-10-methoxy-1H,2H,3H,4H,6H,7H,11bH-pyrido[2,1-a]isoquinolin-2-ol] | – | 6.41 mL/min/kg | 195 min | 76 % F | 4.86 mL/min/kg | 92 nM |
| COc1cc2c(cc1OCCC(F)(F)F)CCN1C[C@@H](CC(C)(C)C)[C@@H](O)C[C@H]21 [Compound 4-12, (2S,3R,11bR)-3-(2,2-dimethylpropyl)-10-methoxy-9-(3,3,3-trifluoropropoxy)-1H,2H,3H,4H,6H,7H,11bH-pyrido[2,1-a]isoquinolin-2-ol] | – | ≤ 2.97 mL/min/kg | ≥ 420 min | ≥87 % F | ≤2.59 mL/min/kg | 3.4 nM |
| COc1cc2c(cc1OCC1(F)CC1)CCN1C[C@@H](CC(C)(C)C)[C@@H](O)C[C@H]21 [Compound 4-118, (2S,3R,11bR)-3-(2,2-dimethylpropyl)-9-[(1-fluorocyclopropyl)methoxy]-10-methoxy-1H,2H,3H,4H,6H,7H,11bH-pyrido[2,1-a]isoquinolin-2-ol] | – | 6.6 mL/min/kg | 189 min | 75 % F | 4.96 mL/min/kg | 13 nM |
| COc1cc2c(cc1OC1COC1)CCN1C[C@@H](CC(C)(C)C)[C@H](O)C[C@H]21 [Compound 4-30, (2R,3R,11bR)-3-(2,2-dimethylpropyl)-10-methoxy-9-(oxetan-3-yloxy)-1H,2H,3H,4H,6H,7H,11bH-pyrido[2,1-a]isoquinolin-2-ol] | – | ≤ 2.97 mL/min/kg | ≥ 420 min | ≥87 % F | ≤2.59 mL/min/kg | 12 nM |
| COc1cc2c(cc1OCCOCC#N)CCN1C[C@@H](CC(C)(C)C)[C@H](O)C[C@H]21 [Compound 4-70, 2-(2-{[(2R,3R,11bR)-3-(2,2-dimethylpropyl)-2-hydroxy-10-methoxy-1H,2H,3H,4H,6H,7H,11bH-pyrido[2,1-a]isoquinolin-9-yl]oxy}ethoxy)acetonitrile] | – | 11.4 mL/min/kg | 110 min | 64 % F | 7.25 mL/min/kg | 36 nM |
| CC[C@H](O)COc1cc2c(cc1OC)[C@H]1C[C@@H](O)[C@H](CC(C)(C)C)CN1CC2 [Compound 4-68, (2R,3R,11bR)-3-(2,2-dimethylpropyl)-9-[(2S)-2-hydroxybutoxy]-10-methoxy-1H,2H,3H,4H,6H,7H,11bH-pyrido[2,1-a]isoquinolin-2-ol] | – | 6.37 mL/min/kg | 196 min | 76 % F | 4.83 mL/min/kg | 29 nM |
| COc1cc2c(cc1OCc1cccc(F)c1)CCN1C[C@@H](CC(C)(C)C)[C@H](O)C[C@H]21 [Compound 4-64, (2R,3R,11bR)-3-(2,2-dimethylpropyl)-9-[(3-fluorophenyl)methoxy]-10-methoxy-1H,2H,3H,4H,6H,7H,11bH-pyrido[2,1-a]isoquinolin-2-ol] | – | 38 mL/min/kg | 33 min | 35 % F | 13.1 mL/min/kg | 5.5 nM |
| COc1cc2c(cc1OCC(O)COCC(F)(F)F)CCN1C[C@@H](CC(C)(C)C)[C@H](O)C[C@H]21 (stereo partly drawn) [Compound 4-79] | – | 5.88 mL/min/kg | 212 min | 77 % F | 4.54 mL/min/kg | 99 nM |
| COc1cc2c(cc1OCc1ccc(F)cc1)CCN1C[C@@H](CC(C)(C)C)[C@H](O)C[C@H]21 [Compound 4-63, (2R,3R,11bR)-3-(2,2-dimethylpropyl)-9-[(4-fluorophenyl)methoxy]-10-methoxy-1H,2H,3H,4H,6H,7H,11bH-pyrido[2,1-a]isoquinolin-2-ol] | – | 42.3 mL/min/kg | 29 min | 32 % F | 13.58 mL/min/kg | 4.2 nM |
